Experimental data as given in ChEMBL document CHEMBL1201862, “PubChem BioAssay data set” (2004).
Activity calls are given as the source filed them.

Key:
[1] = target: Beta-2 adrenergic receptor (Homo sapiens, UniProt P07550); test: beta2AR agonists driving receptor internalization, dose response, cell-based, FAP fluorogen, flow cytometry, cherry pick 1 (AID 588763); assay type: functional
[2] = target: T1, Microphthalmia-associated transcription factor (Homo sapiens, UniProt O75030); test: TRPM1 promoter luciferase signal decrease, dose response, MITF inhibitor project, cell-based, SK-MEL-5, cherry-picked, set 3 (AID 493073); assay type: functional
T1 sequence (O75030 whole entry): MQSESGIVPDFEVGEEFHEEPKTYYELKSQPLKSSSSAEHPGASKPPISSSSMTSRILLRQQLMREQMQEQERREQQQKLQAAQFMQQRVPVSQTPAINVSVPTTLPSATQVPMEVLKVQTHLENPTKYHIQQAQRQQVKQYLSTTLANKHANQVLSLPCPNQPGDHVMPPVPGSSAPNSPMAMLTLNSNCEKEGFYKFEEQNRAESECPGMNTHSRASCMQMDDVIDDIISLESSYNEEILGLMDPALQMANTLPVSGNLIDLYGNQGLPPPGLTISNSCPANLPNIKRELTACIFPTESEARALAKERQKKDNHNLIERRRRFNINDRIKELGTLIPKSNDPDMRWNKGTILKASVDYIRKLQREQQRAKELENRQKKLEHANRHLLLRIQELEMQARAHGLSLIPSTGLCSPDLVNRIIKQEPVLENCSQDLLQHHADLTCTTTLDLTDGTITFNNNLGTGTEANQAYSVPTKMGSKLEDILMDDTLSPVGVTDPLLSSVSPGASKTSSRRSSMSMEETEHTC

[3] = test system: INS1; test: beta cell apoptosis inhibitors, cytokine rescue, dose response, luminescence, retest (AID 449756); assay type: functional, cell-based; conditions: Rattus norvegicus;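 note: cell death triggered by IL-1 beta plus TNF-alpha plus IFN-gamma mixture; protective hits raise ATP signal compared with cytokine alone wells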
[4] = test system: A-375; test: MITF: Counter assay: A375 proliferation Measured in Cell-Based System Using Plate Reader - 2084-03_Inhibitor_Dose_DryPowder_Activity. [Related pubchem assays (depositor defined):AID488944]; assay type: functional; conditions: Homo sapiens
[5] = growth suppression of PTEN-null colon cells, dose response, cell-based, HCT116 PTEN knockout (AID 1047); assay type: functional;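 note: HCT116 colon tumor cells with PTEN knocked out; cells exposed to compound for 60 hours before readout; potency for loss of cell viability measured by luminescence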
[6] = growth suppression of beta-catenin-knockout colon cells, dose response, cell-based, HCT116, human colon tumor (AID 1045); assay type: functional;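 note: HCT116 colon tumor cells with beta catenin knocked out; cells exposed to compound for 60 hours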
[7] = target: Genome polyprotein (dengue virus type 2, UniProt P29990); test: Dengue-2 NS5 methyltransferase inhibitors, primary screen, biochemical, confirmation dose response (AID 588689); assay type: functional
[8] = microbe, parasite or virus in culture; assay type: functional; conditions: Mycobacterium tuberculosis
[9] = test system: CHO; test: cytotoxicity in TLR9-MyD88 CHO cells, dose response, cytotoxicity control for TLR9-MyD88 binding inhibitor project, cell-based, luminescence (AID 588339); assay type: functional, hamster; conditions: Cricetulus griseus;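 note: CHO cells stably coexpressing TLR9 and MyD88 fusions from primary screen; compound exposure lasted 48 hours before viability readout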
[10] = Luminescence Cell-Based Dose Retest to Confirm Inhibitors of Cancer Stem Cells. [Related pubchem assays (depositor defined):AID2717, AID2721]; assay type: functional; conditions: Homo sapiens
[11] = target: Beta Lactamase (Pseudomonas aeruginosa, UniProt Q932Y6); test: beta-lactamase reporter inhibitor potency, dose response, artefact control for TLR9-MyD88 binding inhibitor project, BLA reporter cells, FRET fluorescence (AID 588341); assay type: cell-based;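 note: cell based assay in CHO-K1 cells stably expressing beta-lactamase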
[12] = target: T2, Short transient receptor potential channel 4 (Mus musculus, UniProt Q9QUQ5); test: mouse TRPC4 channel inhibitors, dose response, cell-based, HEK293 TRPC4/mu-opioid, Fluo-4 calcium (AID 434942); assay type: functional;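 note: potency of inhibitors blocking the TRPC4 calcium response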
T2 sequence (Q9QUQ5 whole entry): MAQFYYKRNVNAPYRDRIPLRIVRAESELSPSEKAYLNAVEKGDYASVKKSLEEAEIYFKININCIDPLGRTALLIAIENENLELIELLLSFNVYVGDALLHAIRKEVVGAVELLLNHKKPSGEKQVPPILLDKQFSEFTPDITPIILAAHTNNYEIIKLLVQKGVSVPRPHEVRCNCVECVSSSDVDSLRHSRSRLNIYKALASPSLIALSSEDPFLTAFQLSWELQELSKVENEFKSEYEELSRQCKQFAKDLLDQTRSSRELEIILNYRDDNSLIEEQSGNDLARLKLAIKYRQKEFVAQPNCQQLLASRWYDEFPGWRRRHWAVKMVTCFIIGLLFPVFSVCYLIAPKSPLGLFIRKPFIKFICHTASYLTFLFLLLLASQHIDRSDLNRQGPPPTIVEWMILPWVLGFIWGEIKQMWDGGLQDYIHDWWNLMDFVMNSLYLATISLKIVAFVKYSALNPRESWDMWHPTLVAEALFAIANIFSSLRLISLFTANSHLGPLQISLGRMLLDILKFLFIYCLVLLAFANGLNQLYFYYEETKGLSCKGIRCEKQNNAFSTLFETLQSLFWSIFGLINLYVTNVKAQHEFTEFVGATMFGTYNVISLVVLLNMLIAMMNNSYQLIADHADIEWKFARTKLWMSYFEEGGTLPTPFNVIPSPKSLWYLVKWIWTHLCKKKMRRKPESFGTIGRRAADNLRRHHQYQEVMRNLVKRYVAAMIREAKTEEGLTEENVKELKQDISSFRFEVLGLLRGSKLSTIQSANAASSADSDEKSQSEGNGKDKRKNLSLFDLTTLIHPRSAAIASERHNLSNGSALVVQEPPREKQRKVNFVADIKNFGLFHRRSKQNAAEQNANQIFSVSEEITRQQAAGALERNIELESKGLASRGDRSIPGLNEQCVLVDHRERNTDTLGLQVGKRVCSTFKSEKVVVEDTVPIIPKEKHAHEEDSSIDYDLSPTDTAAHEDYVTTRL

[13] = target: Phospholipase A2 (Homo sapiens, UniProt P04054); assay type: functional;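 note: confirmatory dose-response counterscreen on phospholipase A2, testing hits that came from an ultra-high-throughput screen for ATG4B inhibitors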
[14] = target: Cysteine protease ATG4B (Homo sapiens, UniProt Q9Y4P1); assay type: functional;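 note: Fluorescence-based dose-response confirmation assay measuring inhibition of ATG4B activity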
[15] = target: T3, Type-1 angiotensin II receptor (Homo sapiens, UniProt P30556); test: AT1 receptor antagonists, dose response, selectivity assay for APJ receptor antagonist project, cell-based, uHTS hits (AID 463214); assay type: functional;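 note: antagonist potency against angiotensin II stimulated AT1 response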
T3 sequence (P30556 whole entry): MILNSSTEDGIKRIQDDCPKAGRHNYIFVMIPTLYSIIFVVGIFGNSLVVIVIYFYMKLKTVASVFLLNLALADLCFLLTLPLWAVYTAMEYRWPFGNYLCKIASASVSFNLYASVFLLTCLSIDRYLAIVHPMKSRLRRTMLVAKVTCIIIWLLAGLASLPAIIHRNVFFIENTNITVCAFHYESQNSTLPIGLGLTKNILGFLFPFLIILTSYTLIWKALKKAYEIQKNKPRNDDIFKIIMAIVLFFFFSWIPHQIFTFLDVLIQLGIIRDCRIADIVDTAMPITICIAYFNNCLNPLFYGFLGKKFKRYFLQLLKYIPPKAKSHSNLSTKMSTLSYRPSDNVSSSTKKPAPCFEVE

[16] = target: Beta-galactosidase (Escherichia coli, UniProt Q8VNN2); test: PubChem AID 485352; assay type: functional
[17] = target: T4, Sentrin-specific protease 7 (Homo sapiens, UniProt Q9BQF6); assay type: functional;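 note: Luminescence-based dose-response confirmation of ultra-high-throughput screening hits, measuring inhibition of SENP7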
T4 sequence (Q9BQF6 whole entry): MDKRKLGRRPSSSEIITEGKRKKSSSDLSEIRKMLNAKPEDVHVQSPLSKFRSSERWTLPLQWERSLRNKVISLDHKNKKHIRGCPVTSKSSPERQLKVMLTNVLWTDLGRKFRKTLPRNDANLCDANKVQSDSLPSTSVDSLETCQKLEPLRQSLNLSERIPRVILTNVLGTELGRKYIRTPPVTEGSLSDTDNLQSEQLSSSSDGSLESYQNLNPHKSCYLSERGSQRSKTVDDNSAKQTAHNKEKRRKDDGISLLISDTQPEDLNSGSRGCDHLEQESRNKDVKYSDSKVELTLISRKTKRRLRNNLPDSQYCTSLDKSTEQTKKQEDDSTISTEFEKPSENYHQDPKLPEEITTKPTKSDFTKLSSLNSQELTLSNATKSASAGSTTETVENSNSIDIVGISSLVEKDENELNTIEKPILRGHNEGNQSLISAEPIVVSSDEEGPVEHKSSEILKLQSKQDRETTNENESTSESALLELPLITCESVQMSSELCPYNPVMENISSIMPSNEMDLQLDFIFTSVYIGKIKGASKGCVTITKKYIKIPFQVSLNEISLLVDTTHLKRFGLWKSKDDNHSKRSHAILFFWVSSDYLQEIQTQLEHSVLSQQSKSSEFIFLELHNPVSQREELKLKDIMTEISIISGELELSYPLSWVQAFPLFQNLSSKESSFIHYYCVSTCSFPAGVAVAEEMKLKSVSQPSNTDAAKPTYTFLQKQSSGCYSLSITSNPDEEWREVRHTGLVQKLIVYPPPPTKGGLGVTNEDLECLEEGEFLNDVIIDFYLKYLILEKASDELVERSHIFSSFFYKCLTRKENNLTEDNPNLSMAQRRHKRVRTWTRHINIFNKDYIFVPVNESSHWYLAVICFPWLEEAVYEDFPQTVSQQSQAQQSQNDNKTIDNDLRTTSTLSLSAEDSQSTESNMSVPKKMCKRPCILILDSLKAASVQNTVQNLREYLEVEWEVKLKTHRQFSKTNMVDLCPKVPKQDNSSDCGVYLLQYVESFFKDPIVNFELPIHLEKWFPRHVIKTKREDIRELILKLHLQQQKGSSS

[18] = target: T5, Caspase-3 (Homo sapiens, UniProt P42574); assay type: functional;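 note: Dose-response selectivity test against caspase-3 for candidate inhibitors of sentrin-specific proteases (SENPs)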
T5 sequence (P42574 whole entry): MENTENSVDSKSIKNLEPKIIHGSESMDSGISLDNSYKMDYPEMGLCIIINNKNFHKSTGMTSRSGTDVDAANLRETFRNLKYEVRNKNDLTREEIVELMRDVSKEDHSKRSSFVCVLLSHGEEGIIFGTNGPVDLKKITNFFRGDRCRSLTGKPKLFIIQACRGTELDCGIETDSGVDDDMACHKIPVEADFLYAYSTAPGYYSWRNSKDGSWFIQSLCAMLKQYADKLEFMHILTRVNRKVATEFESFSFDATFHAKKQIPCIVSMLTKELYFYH

[19] = target: T6, Sentrin-specific protease 8 (Homo sapiens, UniProt Q96LD8); assay type: functional;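 note: luminescence read-out of SENP8 inhibition, dose-response confirmation following an ultra-high-throughput screen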
T6 sequence (Q96LD8 whole entry): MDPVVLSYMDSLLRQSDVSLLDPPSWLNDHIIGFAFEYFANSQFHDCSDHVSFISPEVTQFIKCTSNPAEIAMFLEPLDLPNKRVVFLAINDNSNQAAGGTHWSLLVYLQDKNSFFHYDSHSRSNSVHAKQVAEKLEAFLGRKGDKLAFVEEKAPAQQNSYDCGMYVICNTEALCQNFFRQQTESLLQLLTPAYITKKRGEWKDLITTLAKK

[20] = target: T7, Sentrin-specific protease 6 (Homo sapiens, UniProt Q9GZR1); assay type: functional;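 note: Luminescence-based dose-response confirmatory assay of SENP6 inhibition, following up an ultra-high-throughput screen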
T7 sequence (Q9GZR1 whole entry): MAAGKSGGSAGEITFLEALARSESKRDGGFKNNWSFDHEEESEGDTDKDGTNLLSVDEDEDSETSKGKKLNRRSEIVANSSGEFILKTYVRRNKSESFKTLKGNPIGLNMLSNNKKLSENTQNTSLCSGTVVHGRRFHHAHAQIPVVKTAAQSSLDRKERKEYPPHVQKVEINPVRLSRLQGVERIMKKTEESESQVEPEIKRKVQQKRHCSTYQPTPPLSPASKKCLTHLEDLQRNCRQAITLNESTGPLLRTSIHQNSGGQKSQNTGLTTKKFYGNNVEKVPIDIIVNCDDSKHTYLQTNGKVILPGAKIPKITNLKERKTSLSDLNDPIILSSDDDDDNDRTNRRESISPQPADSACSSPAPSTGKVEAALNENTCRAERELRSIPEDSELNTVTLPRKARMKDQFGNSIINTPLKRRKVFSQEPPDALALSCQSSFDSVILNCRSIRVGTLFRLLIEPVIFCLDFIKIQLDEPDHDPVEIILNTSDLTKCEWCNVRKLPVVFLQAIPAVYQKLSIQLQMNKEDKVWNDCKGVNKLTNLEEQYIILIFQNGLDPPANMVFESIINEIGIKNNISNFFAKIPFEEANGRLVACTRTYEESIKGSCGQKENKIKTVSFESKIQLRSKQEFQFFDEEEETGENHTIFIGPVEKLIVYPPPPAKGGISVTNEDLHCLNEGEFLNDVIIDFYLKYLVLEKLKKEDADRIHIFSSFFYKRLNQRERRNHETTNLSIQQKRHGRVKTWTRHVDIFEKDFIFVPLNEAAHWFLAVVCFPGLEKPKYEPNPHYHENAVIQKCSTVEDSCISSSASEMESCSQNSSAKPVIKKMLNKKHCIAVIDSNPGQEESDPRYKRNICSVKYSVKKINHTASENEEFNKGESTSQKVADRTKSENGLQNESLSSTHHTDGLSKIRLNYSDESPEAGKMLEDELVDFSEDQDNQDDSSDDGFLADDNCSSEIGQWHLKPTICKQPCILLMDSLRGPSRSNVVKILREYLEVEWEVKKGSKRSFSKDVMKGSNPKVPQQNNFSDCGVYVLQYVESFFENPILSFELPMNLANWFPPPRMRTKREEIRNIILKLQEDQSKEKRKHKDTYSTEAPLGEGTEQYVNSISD

Chain of Phospholipase A2 (P04054 whole entry): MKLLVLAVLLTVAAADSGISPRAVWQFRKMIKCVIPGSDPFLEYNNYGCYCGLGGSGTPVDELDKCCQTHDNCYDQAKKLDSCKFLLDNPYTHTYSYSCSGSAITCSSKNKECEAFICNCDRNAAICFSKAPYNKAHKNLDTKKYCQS
Chain of Beta-galactosidase (Q8VNN2 whole entry): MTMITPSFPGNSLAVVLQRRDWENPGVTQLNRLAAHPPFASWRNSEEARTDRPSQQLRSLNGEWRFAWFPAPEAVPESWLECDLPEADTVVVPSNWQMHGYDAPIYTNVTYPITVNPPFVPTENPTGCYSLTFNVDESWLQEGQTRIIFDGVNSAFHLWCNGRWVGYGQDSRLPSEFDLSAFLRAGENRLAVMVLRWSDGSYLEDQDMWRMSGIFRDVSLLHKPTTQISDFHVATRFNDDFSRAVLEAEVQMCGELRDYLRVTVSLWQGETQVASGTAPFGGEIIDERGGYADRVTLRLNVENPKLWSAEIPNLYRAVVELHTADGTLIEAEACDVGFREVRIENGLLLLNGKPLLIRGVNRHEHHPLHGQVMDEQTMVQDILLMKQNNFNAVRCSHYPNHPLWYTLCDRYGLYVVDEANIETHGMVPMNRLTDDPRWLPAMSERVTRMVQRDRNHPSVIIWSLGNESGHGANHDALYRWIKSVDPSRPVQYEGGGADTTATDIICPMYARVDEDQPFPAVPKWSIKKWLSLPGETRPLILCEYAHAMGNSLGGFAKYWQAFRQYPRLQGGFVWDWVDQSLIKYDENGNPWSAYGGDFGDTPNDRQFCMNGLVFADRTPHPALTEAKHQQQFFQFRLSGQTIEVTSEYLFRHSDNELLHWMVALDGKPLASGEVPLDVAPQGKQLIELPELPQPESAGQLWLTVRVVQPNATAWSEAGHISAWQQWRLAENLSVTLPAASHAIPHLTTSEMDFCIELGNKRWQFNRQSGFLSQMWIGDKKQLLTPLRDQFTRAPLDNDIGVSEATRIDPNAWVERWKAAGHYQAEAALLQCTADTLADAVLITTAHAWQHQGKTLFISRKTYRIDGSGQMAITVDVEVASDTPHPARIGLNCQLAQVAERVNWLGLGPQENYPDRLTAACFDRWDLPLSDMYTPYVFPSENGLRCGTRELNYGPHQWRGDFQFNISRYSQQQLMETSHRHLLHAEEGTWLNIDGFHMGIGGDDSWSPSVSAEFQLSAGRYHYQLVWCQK
Chain of Cysteine protease ATG4B (Q9Y4P1 whole entry): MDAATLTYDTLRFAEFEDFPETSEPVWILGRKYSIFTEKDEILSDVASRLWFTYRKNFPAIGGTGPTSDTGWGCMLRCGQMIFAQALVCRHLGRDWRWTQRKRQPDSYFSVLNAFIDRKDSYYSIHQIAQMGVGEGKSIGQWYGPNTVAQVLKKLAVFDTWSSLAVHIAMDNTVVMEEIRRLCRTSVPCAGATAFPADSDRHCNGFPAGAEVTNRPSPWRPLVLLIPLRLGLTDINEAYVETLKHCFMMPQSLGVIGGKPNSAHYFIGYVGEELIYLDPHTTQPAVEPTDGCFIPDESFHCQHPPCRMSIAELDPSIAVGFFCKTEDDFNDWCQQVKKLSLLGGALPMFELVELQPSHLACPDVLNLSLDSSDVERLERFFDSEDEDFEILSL
Chain of Beta Lactamase (Q932Y6 whole entry): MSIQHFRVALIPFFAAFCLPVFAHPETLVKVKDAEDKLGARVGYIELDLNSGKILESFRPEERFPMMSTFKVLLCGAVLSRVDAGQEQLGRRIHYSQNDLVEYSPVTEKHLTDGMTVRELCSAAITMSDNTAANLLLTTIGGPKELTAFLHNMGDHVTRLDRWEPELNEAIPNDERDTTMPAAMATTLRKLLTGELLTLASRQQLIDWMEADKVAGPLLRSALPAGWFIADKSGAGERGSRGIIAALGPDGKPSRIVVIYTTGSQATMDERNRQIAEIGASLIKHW
Chain of Genome polyprotein (P29990 2492-3391 limits assumed): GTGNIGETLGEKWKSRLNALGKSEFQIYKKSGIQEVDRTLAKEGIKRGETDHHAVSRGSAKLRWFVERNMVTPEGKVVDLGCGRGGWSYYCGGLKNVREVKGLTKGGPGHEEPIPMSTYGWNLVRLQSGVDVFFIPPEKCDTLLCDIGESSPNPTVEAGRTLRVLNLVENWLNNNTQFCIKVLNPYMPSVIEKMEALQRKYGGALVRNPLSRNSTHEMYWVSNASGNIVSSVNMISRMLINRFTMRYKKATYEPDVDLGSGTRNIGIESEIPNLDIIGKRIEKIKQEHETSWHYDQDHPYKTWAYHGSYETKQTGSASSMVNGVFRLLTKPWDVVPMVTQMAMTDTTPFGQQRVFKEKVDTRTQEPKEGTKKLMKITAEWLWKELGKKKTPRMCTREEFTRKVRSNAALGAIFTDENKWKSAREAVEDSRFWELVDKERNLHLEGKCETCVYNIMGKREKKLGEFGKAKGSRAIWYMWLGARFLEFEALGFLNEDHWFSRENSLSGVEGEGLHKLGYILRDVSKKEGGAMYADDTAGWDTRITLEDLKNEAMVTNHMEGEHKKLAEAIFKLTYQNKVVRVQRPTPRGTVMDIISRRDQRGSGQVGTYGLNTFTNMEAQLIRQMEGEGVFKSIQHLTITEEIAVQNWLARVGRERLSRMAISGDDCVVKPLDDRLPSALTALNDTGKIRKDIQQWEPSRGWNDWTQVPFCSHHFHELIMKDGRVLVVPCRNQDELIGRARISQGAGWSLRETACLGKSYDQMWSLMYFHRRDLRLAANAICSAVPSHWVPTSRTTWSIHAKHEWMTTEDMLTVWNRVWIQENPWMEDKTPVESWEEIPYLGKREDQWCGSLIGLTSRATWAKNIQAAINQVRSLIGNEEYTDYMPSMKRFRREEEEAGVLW
Chain of Beta-2 adrenergic receptor (P07550 whole entry): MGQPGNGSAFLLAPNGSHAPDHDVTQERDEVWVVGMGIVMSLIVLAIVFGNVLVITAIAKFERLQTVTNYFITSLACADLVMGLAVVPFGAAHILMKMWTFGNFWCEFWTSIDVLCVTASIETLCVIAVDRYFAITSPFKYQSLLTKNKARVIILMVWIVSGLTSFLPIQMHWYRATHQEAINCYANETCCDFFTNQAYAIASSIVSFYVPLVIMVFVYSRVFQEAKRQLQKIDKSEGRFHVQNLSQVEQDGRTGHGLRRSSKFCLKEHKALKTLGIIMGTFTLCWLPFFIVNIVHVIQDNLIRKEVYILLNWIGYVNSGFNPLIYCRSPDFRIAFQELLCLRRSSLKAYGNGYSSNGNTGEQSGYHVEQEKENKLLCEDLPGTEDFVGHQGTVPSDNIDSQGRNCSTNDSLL

COc1ccccc1CNCC(O)Cn1c2ccccc2c2ccccc21 (stereo not given)
EC50 [1]: 12.2 µM (inactive)
AC50 [2]: 18.7 µM (active)
AC50 [3]: 11.2 µM (active)
AC50 [4]: 19.2 µM (active)
EC50 [5]: 8.09 µM (active)
EC50 [6]: 8.31 µM (active)

N#Cc1c([N+](=O)[O-])cc([N+](=O)[O-])cc1S(=O)(=O)Cc1ccccc1
IC50 [7]: > 100 µM (active)
CC50 [8]: > 40 µM (active)
IC50 [9]: 1.6 µM (active)
AC50 [3]: 3.59 µM (active)
AC50 [10]: 1.61 µM (active)
IC50 [11]: 12.1 µM (inactive)

O=C(O)c1cc(NN=C2c3ccccc3-c3ccccc32)ccc1Cl
EC50 [12]: 2.99 µM (active)
IC50 [13]: 9.27 µM (active)
IC50 [14]: 9.33 µM (active)

O=C(CSc1nnc(COc2ccc(Cl)cc2)n1Cc1ccco1)c1ccccc1F
IC50 [13]: 55.7 µM (inactive)
IC50 [14]: 2.36 µM (active)

O=C1N=C(NS(=O)(=O)Cc2ccccc2)S/C1=C/c1cc([N+](=O)[O-])ccc1O
IC50 [15]: 39.9 µM (not active)
EC50 [16]: > 40 µM (inactive)

CCC[N+](CC#Cc1ccccc1)(CCC)CC(=O)c1ccc(Cl)cc1
IC50 [15]: > 40 µM (not active)
EC50 [16]: > 40 µM (inactive)

O=C(Nc1ccc(Br)cn1)c1ccc(Br)s1
IC50 [17]: 6.53 µM (active)
IC50 [18]: 20.4 µM (active)
IC50 [19]: > 100 µM (inactive)
IC50 [20]: > 100 µM (inactive)
